For eight compounds, EC50 and Kd results are on record in US12091402B2 (Avilar Therapeutics, Inc., priority 2021, dated 2024).

Structures are written as SMILES. Like-named read-outs stand apart in the source and are kept apart here.

Assay [1] relates to HepG2 cells. The assay is described as follows: Cellular uptake assay of AF488-labeled antibody (HepG2). It is filed as cell-based. Here is the method: The cellular uptake assay is designed to measure compound-mediated cellular uptake of fluorescently labeled antibody following ternary complex formation with the ASGPR receptor and endocytosis of the entire complex into cells.
Human IgG (Sigma-Aldrich, 14506) was covalently labeled with Alexa Fluor 488 using the Alexa Fluor™ 488 Protein Labeling Kit (Thermo Fisher, A10235) following the manufacturer's instructions. HepG2 cells were plated in DMEM supplemented with 10% FBS at 5,000 cells per well in a 96-well microtiter plate and incubated for approximately 18 hours at 37° C./5% CO2. For studies using human IgG, 100 nM AF488-labeled human IgG antibodies and serial dilutions of IgG-based degrader (0.1% DMSO final concentration) were added to the cells and the mixture was incubated at 37° C. for 6 hours. For studies using DNP, 100 nM AF488-labeled DNP antibodies and serial dilutions of DNP-based degrader (0.1% DMSO final concentration) were added to the cells and the mixture was incubated at 37° C. for 6 hours. HepG2 cells were fixed in 100% methanol at −20° C. for 20 min, washed 3× with PBS, then stained with DAPI (Thermo, Cat #H3570). HepG2 cells were imaged for DAPI and Alexa Fluor 488 using the Operetta CLS, high-content analysis system (PerkinElmer). Data is presented as the ratio of the number of cells positive for hIgG or DNP (AF-488 fluorescence) over the total cell number (measured by DAPI).

Assay [2] concerns the target IgG. The assay is described as follows: Affinity to IgG by surface plasmon resonance (SPR). The format is binding. Here is the method: Immobilization levels ranging from 1000-1300 resonance units (RU) are obtained. The running buffer is 10 mM HEPES, pH 7.4, 400 mM NaCl, 0.005% P20, […].
[3] abbreviates: HepG2 cells, 100 nM AF488-labeled antibody, 37° C. for 6 hours, class symbols, read-out: Uptake Assay EC50.
Setting [4] is: Biacore 8K, 25° C., IgG on CM5 chip, read-out: IgG SPR Binding Kd.
Setting [5] is: HepG2 cells, read-out: Uptake EC50.

Consider `CC(C)C[C@@H]1NC(=O)[C@H](Cc2c[nH]cn2)NC(=O)[C@H](Cc2c[nH]c3ccccc23)NC(=O)[C@H](C)NC(=O)[C@@H]2CSSC[C@H](NC(=O)[C@H](Cc3c[nH]c4ccccc34)NC(=O)[C@H](C(C)C)NC(=O)[C@H](CC(C)C)NC(=O)[C@H](CCC(=O)O)NC(=O)CNC1=O)C(=O)N[C@@H]([C@@H](C)O)C(=O)N1CCC[C@@H]1C(=O)N1C[C@@H](NC(=O)CCOCCOCCNC(=O)CCCc3cn(CCCCCC(=O)NC(COCCC(=O)NCCOCCOCCOCCOC[C@@]45CO[C@@H](O4)[C@H](Nc4nc(Cl)ns4)[C@@H](O)[C@H]5O)COCCC(=O)NCCOCCOCCOCCOC[C@@]45CO[C@@H](O4)[C@H](Nc4nc(Cl)ns4)[C@@H](O)[C@H]5O)nn3)C[C@H]1C(=O)N[C@@H](CC(=O)O)C(=O)N2` [Compound 17], for which the EC50 in assay [1] (setting [3]) was less than 100 nM. Besides, in assay [2] (setting [4]), the Kd was less than 100 nM. For `CC(C)C[C@@H]1NC(=O)[C@H](Cc2c[nH]cn2)NC(=O)[C@H](Cc2c[nH]c3ccccc23)NC(=O)[C@H](C)NC(=O)[C@@H]2CSSC[C@H](NC(=O)[C@H](Cc3c[nH]c4ccccc34)NC(=O)[C@H](C(C)C)NC(=O)[C@H](CC(C)C)NC(=O)[C@H](CCC(=O)O)NC(=O)CNC1=O)C(=O)N[C@@H]([C@@H](C)O)C(=O)N1CCC[C@@H]1C(=O)N1C[C@@H](NC(=O)CNC(COCCC(=O)NCCOCCOCCOCCOC[C@H]3OC[C@H](Nc4cncc(C(F)(F)F)n4)[C@@H](O)[C@H]3O)COCCC(=O)NCCOCCOCCOCCOC[C@H]3OC[C@H](Nc4cncc(C(F)(F)F)n4)[C@@H](O)[C@H]3O)C[C@H]1C(=O)N[C@@H](CC(=O)O)C(=O)N2` [Compound 74], in assay [1] (setting [5]), the EC50 is less than 100 nM. In assay [2] (SPR, read-out: IgG KD), the dissociation constant Kd is less than 100 nM. Regarding `CC(C)C[C@@H]1NC(=O)[C@H](Cc2c[nH]cn2)NC(=O)[C@H](Cc2c[nH]c3ccccc23)NC(=O)[C@H](C)NC(=O)[C@@H]2CSSC[C@H](NC(=O)[C@H](Cc3c[nH]c4ccccc34)NC(=O)[C@H](C(C)C)NC(=O)[C@H](CC(C)C)NC(=O)[C@H](CCC(=O)O)NC(=O)CNC1=O)C(=O)N[C@@H]([C@@H](C)O)C(=O)N1CCC[C@@H]1C(=O)N1C[C@@H](NC(=O)CCOCCOCCNC(=O)CCCc3cn(C[C@@]45CO[C@@H](O4)[C@H](Nc4nc(Cl)ns4)[C@@H](O)[C@H]5O)nn3)C[C@H]1C(=O)N[C@@H](CC(=O)O)C(=O)N2` [Compound 13], the EC50 in assay [1] (setting [3]) fell in the range of 100 to 500 nM. On the same count and under the same terms, then `CC(C)C[C@@H]1NC(=O)[C@H](Cc2c[nH]cn2)NC(=O)[C@H](Cc2c[nH]c3ccccc23)NC(=O)[C@H](C)NC(=O)[C@@H]2CSSC[C@H](NC(=O)[C@H](Cc3c[nH]c4ccccc34)NC(=O)[C@H](C(C)C)NC(=O)[C@H](CC(C)C)NC(=O)[C@H](CCC(=O)O)NC(=O)CNC1=O)C(=O)N[C@@H]([C@@H](C)O)C(=O)N1CCC[C@@H]1C(=O)N1C[C@@H](NC(=O)CCOCCOCCOCCOCCNC(=O)CCCc3cn(CCCCCC(=O)NC(COCCC(=O)NCCOCCOCCOCCOC[C@@]45CO[C@@H](O4)[C@H](Nc4nc(Cl)ns4)[C@@H](O)[C@H]5O)COCCC(=O)NCCOCCOCCOCCOC[C@@]45CO[C@@H](O4)[C@H](Nc4nc(Cl)ns4)[C@@H](O)[C@H]5O)nn3)C[C@H]1C(=O)N[C@@H](CC(=O)O)C(=O)N2` [Compound 14], with less than 100 nM; and `CC(C)C[C@@H]1NC(=O)[C@H](Cc2c[nH]cn2)NC(=O)[C@H](Cc2c[nH]c3ccccc23)NC(=O)[C@H](C)NC(=O)[C@@H]2CSSC[C@H](NC(=O)[C@H](Cc3c[nH]c4ccccc34)NC(=O)[C@H](C(C)C)NC(=O)[C@H](CC(C)C)NC(=O)[C@H](CCC(=O)O)NC(=O)CNC1=O)C(=O)N[C@@H]([C@@H](C)O)C(=O)N1CCC[C@@H]1C(=O)N1C[C@@H](NC(=O)CCOCCOCCNC(=O)CCCc3cn(CCCCCC(=O)NC(COCCC(=O)NCCOCCOCCOCCOC[C@H]4OC[C@H](Nc5nccc(C(F)(F)F)n5)[C@@H](O)[C@H]4O)COCCC(=O)NCCOCCOCCOCCOC[C@H]4OC[C@H](Nc5nccc(C(F)(F)F)n5)[C@@H](O)[C@H]4O)nn3)C[C@H]1C(=O)N[C@@H](CC(=O)O)C(=O)N2` [Compound 12], with less than 100 nM.

Consider `CC(C)C[C@@H]1NC(=O)[C@H](Cc2cnc[nH]2)NC(=O)[C@H](Cc2c[nH]c3ccccc23)NC(=O)[C@H](C)NC(=O)[C@@H]2CSSC[C@H](NC(=O)[C@H](Cc3c[nH]c4ccccc34)NC(=O)[C@H](C(C)C)NC(=O)[C@H](CC(C)C)NC(=O)[C@H](CCC(=O)O)NC(=O)CNC1=O)C(=O)N[C@@H]([C@@H](C)O)C(=O)N1CCC[C@@H]1C(=O)N1C[C@H](NC(=O)CNC(COCCC(=O)NCCOCCOCCOCCOC[C@H]3OC[C@H](Nc4cncc(C(F)(F)F)n4)[C@@H](O)[C@H]3O)COCCC(=O)NCCOCCOCCOCCOC[C@H]3OC[C@H](Nc4cncc(C(F)(F)F)n4)[C@@H](O)[C@H]3O)C[C@H]1C(=O)N[C@@H](CC(=O)O)C(=O)N2` [Compound 92], for which the EC50 in assay [1] (setting [5]) was less than 100 nM. In addition, the Kd in assay [2] (SPR, read-out: IgG KD) was less than 100 nM. Turning to `CC(C)C[C@@H]1NC(=O)[C@H](Cc2c[nH]cn2)NC(=O)[C@H](Cc2c[nH]c3ccccc23)NC(=O)[C@H](C)NC(=O)[C@@H](NC(=O)[C@H](CC(=O)O)NC(=O)CCOCCOCCOCCOCCNC(=O)CCCc2cn(CCCCCC(=O)NC(COCCC(=O)NCCOCCOCCOCCOC[C@H]3OC[C@H](Nc4nccc(C(F)(F)F)n4)[C@@H](O)[C@H]3O)COCCC(=O)NCCOCCOCCOCCOC[C@H]3OC[C@H](Nc4nccc(C(F)(F)F)n4)[C@@H](O)[C@H]3O)nn2)CSSC[C@@H](C(=O)N[C@H](C(N)=O)[C@@H](C)O)NC(=O)[C@H](Cc2c[nH]c3ccccc23)NC(=O)[C@H](C(C)C)NC(=O)[C@H](CC(C)C)NC(=O)[C@H](CCC(=O)O)NC(=O)CNC1=O` [Compound 22], the EC50 in assay [1] (read-out: Uptake Assay EC50) and in assay [1] (read-out: Uptake EC50) was less than 100 nM each time. Besides, the Kd in assay [2] (read-out: IgG KD) and in assay [2] (read-out: IgG SPR Binding Kd) was less than 100 nM each time. Turning to `CC(C)C[C@@H]1NC(=O)[C@H](Cc2c[nH]cn2)NC(=O)[C@H](Cc2c[nH]c3ccccc23)NC(=O)[C@H](C)NC(=O)[C@@H]2CSSC[C@H](NC(=O)[C@H](Cc3c[nH]c4ccccc34)NC(=O)[C@H](C(C)C)NC(=O)[C@H](CC(C)C)NC(=O)[C@H](CCC(=O)O)NC(=O)CNC1=O)C(=O)N[C@@H]([C@@H](C)O)C(=O)N1CCC[C@@H]1C(=O)N1C[C@@H](NC(=O)CCOCCOCCOCCOCCNC(=O)CCCc3cn(C[C@@]45CO[C@@H](O4)[C@H](Nc4nc(Cl)ns4)[C@@H](O)[C@H]5O)nn3)C[C@H]1C(=O)N[C@@H](CC(=O)O)C(=O)N2` [Compound 15], the EC50 in assay [1] (setting [3]) was 100 to 500 nM. Also, in assay [2] (setting [4]), the dissociation constant Kd is less than 100 nM.
